Test results as given in patent publication US5876694A, “Azavesamicols” (priority 1997, dated 1999).

How the values were obtained:
[1] = test system: vesamicol receptor; conditions: cited from earlier work
[2] = test system: cholinergic neurotransmission; assay: In vivo anticholinergic activity in mice (spasms, respiratory distress, paralysis, death); parameters: key to Pharmacological activity in mice: LD: lethal dose; NR: no visible pharmacological reaction; +: visible anticholinergic effects; S: sluggishness and reduced locomotor activity
Procedure: in vivo anticholinergic activity was evaluated in mice. Blockade of cholinergic neurotransmission (or anticholinergic activity) was manifested in a rapidly developing respiratory distress, spasms and paralysis. At lethal doses these symptoms were followed by death within 10 min. As evident in Table 3, several of the compounds tested were lethal at doses as low as 5 and 10 umol/Kg. […] All of the potent compounds belong to the 1,4 series, an observation consistent with the in vitro data discussed above.
^a Group of mice (n = 2) received selected doses of the compounds by
activity: spasms, respiratory distress, paralysis. At lethal doses, death
generally occurred within 10 min following the injection.

[3] = .30 umol/Kg (so in the source) ip
[4] = .60 umol/Kg (so in the source) ip

OC(Cc1ccc(Br)cc1)CN1CCC(c2ccccc2)CC1 (racemic) [(dl)-4c]
increase in potency ([1]; 4c relative to 4a): 59 times

O[C@H]1CNCC[C@@H]1N1CCC(c2ccccc2)CC1 (relative stereo) [Compound 5, 3-Hydroxy-4-(4-phenylpiperidinyl)piperidine]
Pharmacological activity in mice [2, 3]: NR

O[C@H]1CCNC[C@@H]1N1CCC(c2ccccc2)CC1 (relative stereo) [Compound 6]
Pharmacological activity in mice [2, 3]: NR

O=C(c1ccccc1)N1CC[C@H](N2CCC(c3ccccc3)CC2)[C@@H](O)C1 (relative stereo) [Compound 9a, 1-Benzoyl-3-hydroxy-4-(4-phenylpiperidinyl)piperidine]
Pharmacological activity in mice [2, 4]: LD

O=C(c1ccccc1)N1CC[C@H](O)[C@@H](N2CCC(c3ccccc3)CC2)C1 (relative stereo) [Compound 10a, 1-Benzoyl-4-hydroxy-3-(4-phenylpiperidinyl)piperidine]
Pharmacological activity in mice [2, 3]: LD

O=C(c1ccccc1I)N1CC[C@H](O)[C@@H](N2CCC(c3ccccc3)CC2)C1 (relative stereo) [Compound 10b, 4-Hydroxy-1-(2-iodobenzoyl)-3-(4-phenylpiperidinyl)piperidine]
Pharmacological activity in mice ([2]; 2.5 umol/Kg ip): NR | Pharmacological activity in mice ([2]; 20 umol/Kg ip): +

O[C@H]1CN(Cc2ccccc2)CC[C@@H]1N1CCC(c2ccccc2)CC1 (relative stereo) [Compound 11a]
Pharmacological activity in mice ([2]; 10 umol/Kg ip): NR | Pharmacological activity in mice ([2]; 20 umol/Kg ip): +

O[C@H]1CN(Cc2cccc(Br)c2)CC[C@@H]1N1CCC(c2ccccc2)CC1 (relative stereo) [Compound 11c]
Pharmacological activity in mice ([2]; 10 umol/Kg ip): NR | Pharmacological activity in mice ([2]; 20 umol/Kg ip): NR | Pharmacological activity in mice [2, 4]: NR | hind leg paralysis in mice ([2]; footnote c, .60 umol/Kg (so in the source) ip): Hind legs remained visibly paralyzed | duration of visible hind leg paralysis ([2]; postinjection, footnote c, .60 umol/Kg (so in the source) ip): at least 15 min

O[C@H]1CN(Cc2ccc(Br)cc2)CC[C@@H]1N1CCC(c2ccccc2)CC1 (relative stereo) [Compound 11d]
Pharmacological activity in mice ([2]; 10 umol/Kg ip): NR

O[C@H]1CCN(Cc2ccccc2Br)C[C@@H]1N1CCC(c2ccccc2)CC1 (relative stereo) [Compound 12e]
Pharmacological activity in mice ([2]; 10 umol/Kg ip): LD

O[C@H]1CCN(Cc2cccc(Br)c2)C[C@@H]1N1CCC(c2ccccc2)CC1 (relative stereo) [Compound 12f]
Pharmacological activity in mice ([2]; 5.0 umol/Kg ip): NR | Pharmacological activity in mice ([2]; 10 umol/Kg ip): LD

O[C@H]1CCN(Cc2ccc(Br)cc2)C[C@@H]1N1CCC(c2ccccc2)CC1 (relative stereo) [Compound 12g, 1-(4-Bromobenzyl)-4-hydroxy-3-(4-phenylpiperidinyl)piperidine]
Pharmacological activity in mice ([2]; 10 umol/Kg ip): + | Pharmacological activity in mice ([2]; 20 umol/Kg ip): LD

O[C@H]1CCN(Cc2cccc(I)c2)C[C@@H]1N1CCC(c2ccccc2)CC1 (relative stereo) [Compound 12h]
Pharmacological activity in mice ([2]; 1.3 umol/Kg ip): NR | Pharmacological activity in mice ([2]; 5.0 umol/Kg ip): LD

O=[N+]([O-])c1ccc(N2CC[C@H](O)[C@@H](N3CCC(c4ccccc4)CC3)C2)cc1 (relative stereo) [Compound 12l, 4-Hydroxy-1-(4-nitrophenyl)-3-(4-phenylpiperidinyl)piperidine]
Pharmacological activity in mice ([2]; .15 umol/Kg (so in the source) ip): NR

O=C(c1ccccc1)N1CC[C@H](O)[C@@H](N2CCC(c3ccccc3)CC2)C1 [(+)-10a]
anticholinergic effects in mice ([2]; 2.5 umol/Kg): elicited anticholinergic effects | Pharmacological activity in mice ([2]; 2.5 umol/Kg ip): + | Pharmacological activity in mice ([2]; 5.0 umol/Kg ip): LD | Pharmacological activity in mice [2, 3]: LD

CC(C)(C)C1CC[C@@H](O)[C@H](N2CCC(c3ccccc3)CC2)C1 (stereo partly shown) [Compound 3]
vesamicol receptor affinity (in words) ([1]; earlier studies): potent ligands
